The source of these data is US7105173B1, “Nicotine replacement applique” (priority 2002, dated 2006).

The conditions of data set [1]: cited from earlier work.

For `CN1CCCC1c1cccnc1` (centres unmarked) [nicotine], the “LD50 oral level expressed as total amount for a small infant” value is “about 250 mg”. For the same molecule, the LD50 oral level result in data set [1] was “approximately 55 milligrams per Kilogram of body weight”.
